Results from US9017722B2, “Pharmaceutical composition containing as an active ingredient 5-methyl-1-phenyl-2-(1H)-pyridone” (Intermune, Inc., priority 2001, dated 2015).

Assay: Light exposure testing (color difference after light irradiation)
Format: physicochemical
Details: for Discoloration / Color difference (ΔE): D65 fluorescent lamp, 3570 Lx, exposure dose 1,200,000 Lx·hr, 25° C., room humidity; for Color difference (ΔE): CIELAB, reflected ray measurement; for light-stability (conclusion from Table 2): light exposure test, 1,200,000 Lx·hr
Procedure: Light exposure test of pirfenidone was carried out under the following condition, using “drug substance” obtained by packing 500 mg of milled pirfenidone drug substance in a heat-sealed transparent SP (Striped Package), “compressed drug substance” obtained by statically compressing 300 mg of milled pirfenidone drug substance, “the plain tablets” obtained in the above Example 1, and “the coated tablets” obtained in the above Example 1. […]
light irradiation apparatus: light stability test apparatus (LTL400-D5) (Nagano Science Equipment Mfg. Co., Ltd.) fluorescent light: D65 fluorescent lamp for color comparing and test temperature and humidity: 25° C., room humidity illumination intensity: 3570 Lx […]
coloring difference measure apparatus: Color analyzer TC-1800MK-II measurement method: reflected ray measurement color specification system: CIELAB measurement condition: second degree visual field

Discoloration | Color difference (ΔE) | light-stability (conclusion from Table 2) (listed as pirfenidone compressed drug substance) | SMILES | light-stability (conclusion from Table 2) (listed as pirfenidone drug substance)
remarkable | 3.62 | have a problem in light-stability | Cc1ccc(=O)n(-c2ccccc2)c1 [Compressed drug substance, 5-Methyl-1-phenyl-2-(1H)-pyridone] | 
slight | 0.73 |  | Cc1ccc(=O)n(-c2ccccc2)c1 [Drug substance, 5-Methyl-1-phenyl-2-(1H)-pyridone] | remarkable color difference was not observed
